# Several values for one entry are separate records, joined by “and”; a condition that tells them apart may be missing. Equal values may be shown once.
# Columns and labels:
# TLR7 [1] = target: T1, TLR7 (Mus musculus, UniProt P58681); assay: In vitro cytokine induction (TNF-alpha, IL-6, IL-12; ELISA) in murine macrophages: RAW264.7 cells and BMDM; assay type: cell-based; conditions: normalized to the molar level of the unconjugated agonist (SM)
# T1 construct: BMDM were prepared from C57BL/6 and TLR7 deficient mice; endogenous in cells; host or cells: RAW264.7 (ATCC); bone marrow derived macrophages from C57BL/6 mice
# T1 sequence (P58681 27-1050): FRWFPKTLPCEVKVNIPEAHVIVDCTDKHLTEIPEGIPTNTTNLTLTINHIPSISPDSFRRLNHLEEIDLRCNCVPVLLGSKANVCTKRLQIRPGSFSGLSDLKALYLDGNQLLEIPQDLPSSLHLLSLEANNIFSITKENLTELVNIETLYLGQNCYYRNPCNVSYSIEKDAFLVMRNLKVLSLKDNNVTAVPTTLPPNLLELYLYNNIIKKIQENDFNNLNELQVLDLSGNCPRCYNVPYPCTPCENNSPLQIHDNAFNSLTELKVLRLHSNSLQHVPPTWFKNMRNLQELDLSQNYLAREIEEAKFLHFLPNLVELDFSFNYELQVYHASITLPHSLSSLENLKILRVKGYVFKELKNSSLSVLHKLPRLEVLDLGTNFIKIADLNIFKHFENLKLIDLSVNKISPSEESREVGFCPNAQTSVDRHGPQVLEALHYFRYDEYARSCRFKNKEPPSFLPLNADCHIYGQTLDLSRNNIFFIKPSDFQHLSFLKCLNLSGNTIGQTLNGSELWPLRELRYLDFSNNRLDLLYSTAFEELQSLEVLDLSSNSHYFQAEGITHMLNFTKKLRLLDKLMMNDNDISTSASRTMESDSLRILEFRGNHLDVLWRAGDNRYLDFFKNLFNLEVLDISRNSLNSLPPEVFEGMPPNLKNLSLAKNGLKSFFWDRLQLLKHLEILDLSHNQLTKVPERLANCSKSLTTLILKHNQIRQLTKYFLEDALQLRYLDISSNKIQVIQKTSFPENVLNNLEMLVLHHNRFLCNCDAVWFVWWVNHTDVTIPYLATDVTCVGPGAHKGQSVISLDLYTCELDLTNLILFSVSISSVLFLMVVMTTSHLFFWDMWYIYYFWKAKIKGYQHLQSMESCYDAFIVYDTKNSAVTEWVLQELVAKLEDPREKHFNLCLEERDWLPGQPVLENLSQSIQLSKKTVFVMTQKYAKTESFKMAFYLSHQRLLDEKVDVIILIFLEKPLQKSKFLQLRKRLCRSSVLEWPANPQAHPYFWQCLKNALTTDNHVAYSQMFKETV
# Procedure: In vitro measurements of cytokine induction were performed using the mouse leukemic monocyte macrophage cell line, RAW264.7. […] BMDM were prepared from C57BL/6 and TLR7 deficient mice as described in Wu, C. C et al., “Immunotherapeutic activity of a conjugate of a Toll-like receptor 7 ligand”, Proc. Natl. Acad. Sci. USA, 104:3990 (2007).
# In general, RAW264.7 cells or BMDM were incubated with various concentrations of conjugates for 18 hours at 37° C., 5% CO2 and culture supernatants were collected. The levels of cytokines (IL-6, IL-12 or TNF-α in the supernatants were determined by ELISA (BD Biosciences Pharmingen, La Jolla, Calif.) (Cho, H. J et al., “Immunostimulatory DNA-based vaccines induce cytotoxic lymphocyte activity by a T-helper cell-independent mechanism” [see comments], Nat. Biotechnol., 18:509 (2000)), and the results presented in FIGS. 2A-D. Data are mean±SEM of triplicates and are representative of three independent experiments. Minimum detection levels of these cytokines were 15 pg/mL.
# TNFα levels were measured (see FIG. 2A) by incubating approximately 1×10^6/mL RAW 264.7 cells with the various conjugates or controls, as described above. IL-6 and IL-12 levels were measured (see FIGS. 2B-D) by incubating 0.5×10^6/mL BMDM with the various conjugates or controls, as described above. […]
# TLR7 [2] = target: T2, TLR7 (Homo sapiens, UniProt Q9NYK1); assay: Cytokine induction (IL-6, IFNalpha1; Luminex) in human PBMC; assay type: cell-based; conditions: 18 hours, IL-6 (FIG. 3A)
# T2 sequence (Q9NYK1 27-1049): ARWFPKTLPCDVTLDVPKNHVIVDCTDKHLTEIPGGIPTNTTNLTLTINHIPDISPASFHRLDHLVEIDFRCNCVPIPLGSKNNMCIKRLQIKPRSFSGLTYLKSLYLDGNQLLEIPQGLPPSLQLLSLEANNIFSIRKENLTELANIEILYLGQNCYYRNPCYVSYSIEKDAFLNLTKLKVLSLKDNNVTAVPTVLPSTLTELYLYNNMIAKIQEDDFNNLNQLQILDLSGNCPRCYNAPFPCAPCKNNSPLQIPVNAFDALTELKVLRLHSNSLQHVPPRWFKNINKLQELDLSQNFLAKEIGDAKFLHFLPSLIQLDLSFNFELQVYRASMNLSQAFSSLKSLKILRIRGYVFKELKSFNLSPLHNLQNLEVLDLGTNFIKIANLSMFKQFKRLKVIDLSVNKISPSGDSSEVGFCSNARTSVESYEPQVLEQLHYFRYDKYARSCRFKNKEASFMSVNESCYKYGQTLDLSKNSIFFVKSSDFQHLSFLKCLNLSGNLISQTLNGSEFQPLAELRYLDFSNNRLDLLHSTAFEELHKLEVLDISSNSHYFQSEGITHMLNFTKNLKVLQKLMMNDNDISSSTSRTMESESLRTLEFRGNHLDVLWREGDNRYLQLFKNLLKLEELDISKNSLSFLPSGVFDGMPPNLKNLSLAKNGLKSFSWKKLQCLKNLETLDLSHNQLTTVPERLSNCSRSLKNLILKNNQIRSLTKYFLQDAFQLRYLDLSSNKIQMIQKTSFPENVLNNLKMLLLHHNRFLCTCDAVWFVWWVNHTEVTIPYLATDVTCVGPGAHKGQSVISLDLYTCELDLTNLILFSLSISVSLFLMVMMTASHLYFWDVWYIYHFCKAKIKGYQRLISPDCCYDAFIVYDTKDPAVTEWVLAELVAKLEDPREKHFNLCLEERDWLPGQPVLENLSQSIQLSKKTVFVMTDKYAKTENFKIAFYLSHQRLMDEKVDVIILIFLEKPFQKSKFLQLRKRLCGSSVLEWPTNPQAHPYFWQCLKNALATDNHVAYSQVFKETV
compound,measurement,setting,value
"CCCCCCCC/C=C\CCCCCCCC(=O)OCC(COP(=O)(O)OCCNC(=O)c1ccc(Cn2c(=O)[nH]c3c(N)nc(OCCOC)nc32)cc1)OC(=O)CCCCCCC/C=C\CCCCCCCC (centres unmarked) [Compound 6, 2-(4-((6-amino-2-(2-methoxyethoxy)-8-oxo-7H-purin-9(8H)-yl)methyl)benzamido)ethyl 2,3-bis(oleoyloxy)propyl phosphate]",potency as cytokine inducer relative to the unconjugated agonist,TLR7 [1],10 fold
same,order of TLR7 conjugate potency,TLR7 [2],(4b)>(6)>(9)>/=SM>(8) and 4b>6>9>SM=8

# Reference: patent US20130202629A1, “USES OF PHOSPHOLIPID CONJUGATES OF SYNTHETIC TLR7 AGONISTS” (The Regents of the University of California, priority 2010, published 2013)
